Experiments:
[1] = test system: AMBEL (Ragweed, Common); experiment: Postemergence herbicidal evaluation; format: in vivo, Ambrosia artemisifolia; details: postemergence
Procedure, shortened: (§1)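 Herbicidal effect was judged by eye on a 0–9 scale covering stand, vigor, deformity, size and chlorosis, compared with controls, four to five weeks after seedlings about two weeks old were sprayed (40 psi, ~0.0156–0.500 kg/ha).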

[2] = test system: IPOHE (Morningglory, Ivyleaf); experiment: Postemergence herbicidal evaluation; format: in vivo, Ipomoea hederacea; details: postemergence
Procedure, shortened: as §1

[3] = test system: GLXMAW (Soybean, Williams); experiment: Postemergence herbicidal evaluation; format: in vivo, Glycine max, (L.) Merr. cv Williams; details: postemergence
Procedure, shortened: as §1

[4] = test system: ZEAMX (Corn, Field); experiment: Postemergence herbicidal evaluation; format: in vivo, Zea mays; details: postemergence
Procedure, shortened: as §1

[5] = test system: ABUTH (Velvetleaf); experiment: Preemergence herbicidal evaluation; format: in vivo, Abutilon theophrasti; details: rated 4-5 weeks after treatment
Procedure, shortened: (§2)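 Greenhouse preemergence test: seed-soil mix sown on ~1 inch soil; aqueous acetone spray at equivalent of ~0.0156–0.500 kg/ha; greenhouse-held and watered; scored 0–9 visually at 4–5 weeks.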

[6] = test system: AMBEL (Ragweed, Common); experiment: Preemergence herbicidal evaluation; format: in vivo, Ambrosia artemisifolia; details: rated 4-5 weeks after treatment
Procedure, shortened: as §2

[7] = test system: CASOB (Sicklepod); experiment: Preemergence herbicidal evaluation; format: in vivo, Cassia obtusifolia; details: rated 4-5 weeks after treatment
Procedure, shortened: as §2

[8] = test system: GALAP (Galium); experiment: Preemergence herbicidal evaluation; format: in vivo, Galium aparine; details: rated 4-5 weeks after treatment
Procedure, shortened: as §2

[9] = test system: ECHCG (Barnyardgrass); experiment: Preemergence herbicidal evaluation; format: in vivo, Echinochloa crus-galli; details: rated 4-5 weeks after treatment
Procedure, shortened: as §2

[10] = test system: SETVI (Foxtail, Green); experiment: Preemergence herbicidal evaluation; format: in vivo, Setaria viridis; details: rated 4-5 weeks after treatment
Procedure, shortened: as §2

[11] = test system: GLXMAW (Soybean, Williams); experiment: Preemergence herbicidal evaluation; format: in vivo, Glycine max, (L.) Merr. cv Williams; details: rated 4-5 weeks after treatment
Procedure, shortened: as §2

[12] = test system: CYPSE (Flatsedge); experiment: Preemergence weed control under flooded paddy conditions; format: in vivo, Cyperus serotinus; details: rated 3-4 weeks after treatment
Procedure, shortened: (§3)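 First, seeds or propagules go into the top 0.5 cm of silt loam; next, water is held 1.5 to 3 cm over the soil; then compound (50/50 acetone/water) is pipetted into it at about 0.0313 to 0.500 kg/ha; finally plants are rated visually 0-9 after three to four weeks.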

[13] = test system: SAGPY (Arrowhead (Pygmaea)); experiment: as above; format: in vivo, Sagittaria pygmaea; details: rated 3-4 weeks after treatment
Procedure, shortened: as §3

[14] = test system: ECHORC (Watergrass (Calif.)); experiment: Postemergence weed control under flooded paddy conditions; format: in vivo, Echinochloa oryzoides; details: postemergence weeds, 3-4 weeks after treatment
Procedure, shortened: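 With weeds 3 to 5 cm tall and rice at the 1.5 to 2.5 leaf stage, containers were flooded and water held 1.5 to 3 cm above soil. Compounds in 50/50 v/v aqueous/acetone went into the flood water at about 0.0313 to 0.500 kg/ha a.i. Effects were visually rated 0–9 against controls after three to four weeks in the greenhouse.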

Structure (SMILES): CCOC(=O)CN1C(=O)C(CC(=O)O)S/C1=N/c1cc(-n2c(=O)cc(C(F)(F)F)n(C)c2=O)c(F)cc1Cl (centres unmarked) [Compound 16]
- AMBEL herbicidal rating ([1]; rate 0.0157 kg/ha): 9.0
- AMBEL herbicidal rating ([1]; rate 0.0313 kg/ha): 8.0
- AMBEL herbicidal rating ([1]; rate 0.0625 kg/ha): 9.0
- AMBEL herbicidal rating ([1]; rate 0.1250 kg/ha): 9.0
- AMBEL herbicidal rating ([1]; rate 0.2500 kg/ha): 9.0
- IPOHE herbicidal rating ([2]; rate 0.0157 kg/ha): 9.0
- IPOHE herbicidal rating ([2]; rate 0.0313 kg/ha): 9.0
- IPOHE herbicidal rating ([2]; rate 0.0625 kg/ha): 9.0
- IPOHE herbicidal rating ([2]; rate 0.1250 kg/ha): 9.0
- IPOHE herbicidal rating ([2]; rate 0.2500 kg/ha): 9.0
- GLXMAW herbicidal rating ([3]; rate 0.0157 kg/ha): 9.0
- GLXMAW herbicidal rating ([3]; rate 0.0313 kg/ha): 8.6
- GLXMAW herbicidal rating ([3]; rate 0.0625 kg/ha): 8.9
- GLXMAW herbicidal rating ([3]; rate 0.1250 kg/ha): 9.0
- GLXMAW herbicidal rating ([3]; rate 0.2500 kg/ha): 9.0
- ZEAMX herbicidal rating ([4]; rate 0.0157 kg/ha): 8.0
- ZEAMX herbicidal rating ([4]; rate 0.0313 kg/ha): 8.1
- ZEAMX herbicidal rating ([4]; rate 0.0625 kg/ha): 8.4
- ZEAMX herbicidal rating ([4]; rate 0.1250 kg/ha): 8.7
- ZEAMX herbicidal rating ([4]; rate 0.2500 kg/ha): 9.0
- ABUTH preemergence herbicidal rating ([5]; rate 0.0156 kg/ha): 5.6
- ABUTH preemergence herbicidal rating ([5]; rate 0.0313 kg/ha): 8.1
- ABUTH preemergence herbicidal rating ([5]; rate 0.0625 kg/ha): 8.8
- ABUTH preemergence herbicidal rating ([5]; rate 0.1250 kg/ha): 8.9
- ABUTH preemergence herbicidal rating ([5]; rate 0.2500 kg/ha): 9.0
- ABUTH preemergence herbicidal rating ([5]; rate 0.5000 kg/ha): 9.0
- AMBEL preemergence herbicidal rating ([6]; rate 0.0156 kg/ha): 2.3
- AMBEL preemergence herbicidal rating ([6]; rate 0.0313 kg/ha): 4.5
- AMBEL preemergence herbicidal rating ([6]; rate 0.0625 kg/ha): 7.8
- AMBEL preemergence herbicidal rating ([6]; rate 0.1250 kg/ha): 8.5
- AMBEL preemergence herbicidal rating ([6]; rate 0.2500 kg/ha): 8.9
- AMBEL preemergence herbicidal rating ([6]; rate 0.5000 kg/ha): 9.0
- CASOB preemergence herbicidal rating ([7]; rate 0.0156 kg/ha): 0.3
- CASOB preemergence herbicidal rating ([7]; rate 0.0313 kg/ha): 0.6
- CASOB preemergence herbicidal rating ([7]; rate 0.0625 kg/ha): 2.7
- CASOB preemergence herbicidal rating ([7]; rate 0.1250 kg/ha): 5.3
- CASOB preemergence herbicidal rating ([7]; rate 0.2500 kg/ha): 8.3
- CASOB preemergence herbicidal rating ([7]; rate 0.5000 kg/ha): 9.0
- GALAP preemergence herbicidal rating ([8]; rate 0.0156 kg/ha): 1.2
- GALAP preemergence herbicidal rating ([8]; rate 0.0313 kg/ha): 2.0
- GALAP preemergence herbicidal rating ([8]; rate 0.0625 kg/ha): 4.8
- GALAP preemergence herbicidal rating ([8]; rate 0.1250 kg/ha): 6.4
- GALAP preemergence herbicidal rating ([8]; rate 0.2500 kg/ha): 8.2
- GALAP preemergence herbicidal rating ([8]; rate 0.5000 kg/ha): 9.0
- ECHCG preemergence herbicidal rating ([9]; rate 0.0156 kg/ha): 0.0
- ECHCG preemergence herbicidal rating ([9]; rate 0.0313 kg/ha): 0.3
- ECHCG preemergence herbicidal rating ([9]; rate 0.0625 kg/ha): 0.6
- ECHCG preemergence herbicidal rating ([9]; rate 0.1250 kg/ha): 1.8
- ECHCG preemergence herbicidal rating ([9]; rate 0.2500 kg/ha): 4.4
- ECHCG preemergence herbicidal rating ([9]; rate 0.5000 kg/ha): 7.1
- SETVI preemergence herbicidal rating ([10]; rate 0.0156 kg/ha): 0.2
- SETVI preemergence herbicidal rating ([10]; rate 0.0313 kg/ha): 1.0
- SETVI preemergence herbicidal rating ([10]; rate 0.0625 kg/ha): 3.7
- SETVI preemergence herbicidal rating ([10]; rate 0.1250 kg/ha): 7.5
- SETVI preemergence herbicidal rating ([10]; rate 0.2500 kg/ha): 8.5
- SETVI preemergence herbicidal rating ([10]; rate 0.5000 kg/ha): 8.9
- GLXMAW preemergence herbicidal rating ([11]; rate 0.0156 kg/ha): 0.5
- GLXMAW preemergence herbicidal rating ([11]; rate 0.0313 kg/ha): 0.7
- GLXMAW preemergence herbicidal rating ([11]; rate 0.0625 kg/ha): 1.5
- GLXMAW preemergence herbicidal rating ([11]; rate 0.1250 kg/ha): 4.5
- GLXMAW preemergence herbicidal rating ([11]; rate 0.2500 kg/ha): 7.7
- GLXMAW preemergence herbicidal rating ([11]; rate 0.5000 kg/ha): 9.0
- Herbicidal rating CYPSE ([12]; 0.0313 kg/ha): 0.0
- Herbicidal rating CYPSE ([12]; 0.0625 kg/ha): 0.0
- Herbicidal rating CYPSE ([12]; 0.1250 kg/ha): 0.0
- Herbicidal rating CYPSE ([12]; 0.2500 kg/ha): 0.0
- Herbicidal rating SAGPY ([13]; 0.0313 kg/ha): 0.0
- Herbicidal rating SAGPY ([13]; 0.0625 kg/ha): 0.0
- Herbicidal rating SAGPY ([13]; 0.1250 kg/ha): 0.0
- Herbicidal rating SAGPY ([13]; 0.2500 kg/ha): 0.0
- Herbicidal rating ECHORC ([14]; rate 0.0313 kg/ha): 0.0
- Herbicidal rating ECHORC ([14]; rate 0.0625 kg/ha): 0.0
- Herbicidal rating ECHORC ([14]; rate 0.1250 kg/ha): 0.0
- Herbicidal rating ECHORC ([14]; rate 0.2500 kg/ha): 0.0

Source: patent publication US20020137929A1, “1 - (3-heterocyclylphenyl) isothiourea, -isourea, -guanidine and -amidine herbicidal agents” (Intellectual Property Department, BASF Aktiengesellschaft, priority 1998, published 2002)
